Test results from US9433228B2, “Method for the production of multiple-unsaturated fatty acids in transgenic organisms” (BASF Plant Science GmbH, priority 2003, dated 2016).
Read-outs that look alike come from different tables or passages of the source.

Experiments:
ELO(XI) = ELO(XI) expressed in yeast, conversion of starting materials; format: cell-based, Xenopus laevis; conditions: fed at in each case 250 μM
Description: Thereafter, the FAMEs were analyzed via GLC.

ELO(Ci) = ELO(Ci) expressed in yeast, conversion of starting materials; format: cell-based, Ciona intestinalis; conditions: fed at in each case 250 μM
Description: (holding). […] Biochem. […] Thereafter, the FAMEs were analyzed via GLC.

PtELO6 (Δ6-elongase) = experiment: PtELO6 expressed in yeast, feeding experiment; conditions: for conversion of fatty acid fed: fed to yeast with pYES2-PtELO6; for % Elongation: fatty acid added at 250 μm
Description: The PCR products were incubated for 30 minutes at 21° C. with the yeast expression vector pYES2.1-TOPO (Invitrogen) following the manufacturer's instructions. The PCR product (see SEQ ID NO: 192) was ligated into the vector by means of a T-overhang and the activity of a topoisomerase (Invitrogen). After the incubation, E. coli DH5α cells were transformed. Suitable clones were identified by PCR, the plasmid DNA was isolated by means of the Qiagen DNAeasy kit and verified by sequencing. The correct sequence was then transformed into the Saccharomyces strain INVSc1 (Invitrogen) by electroporation (1500 V). As a control, the blank vector pYES2.1 was transformed in parallel. Thereafter, the yeasts were plated of minimal dropout uracil medium supplemented with 2% glucose. Cells which were capable of growing in the medium without uracil thus comprise the corresponding plasmids pYES2.1 and pYES2.1-PtELO6. After the selection, in each case two transformants were chosen for the further functional expression.
The yeast cells from the main cultures were harvested by centrifugation (100×g, 5 min, 20° C.) and washed with 100 mM NaHCO3, pH 8.0 to remove residual medium and fatty acids. Starting with the yeast cell sediments, fatty acid methyl esters (FAMEs) were prepared by acid methanolysis. To this end, the cell sediments were incubated for one hour at 80° C. together with 2 ml of 1 N methanolic sulfuric acid and 2% (v/v) of dimethoxypropane. The FAMEs were extracted twice with petroleum ether (PE). To remove nonderivatized fatty acids, the organic phases were washed in each case once with 2 ml of 100 mM NaHCO3, pH 8.0 and 2 ml of distilled water. Thereafter, the PE phases were dried with Na2SO4, evaporated under argon and taken up in 100 μl of PE. The samples were separated on a DB-23 capillary column (30 m, 0.25 mm, 0.25 μm, Agilent) in a Hewlett-Packard 6850 gas chromatograph equipped with flame ionization detector. The conditions for the GLC analysis were as follows: the oven temperature was programmed from 50° C. to 250° C. with a rate of 5° C./min and finally 10 min at 250° C. (holding).
The signals were identified by comparing the retention times with corresponding fatty acid standards (Sigma).
Feeding experiment: fatty acids (in bold) were added at in each case 250 μm.
The yeasts which had been transformed with the vector pYES2-PtELO6 were grown in minimal medium in the presence of the fatty acids stated. The fatty acid methyl esters were synthesized by subjecting intact cells to acid methanolysis. Thereafter, the FAMEs were analyzed via GLC.

TL16y2 = TL16y2 expressed in yeast, feeding experiments; format: cell-based, Thraustochytrium ssp.; conditions: in comparison with the control
Description: The substrate specificity of BioTaurELO1 was determined after expression and feeding of various fatty acids (FIG. 6). […] After the fatty acids had been extracted from the yeasts, they were transmethylated and separated by gas chromatography. The elongation products obtained from the two fatty acids which had been fed are identified by arrows.
The functionality and substrate specificity of TL16y2 was determined after expression and feeding of various fatty acids. […] The feeding experiments were carried-out in the same manner as described for BioTaurELO1. The substrates fed can be detected in large amounts in all transgenic yeasts. […] This means that functional expression of the gene TL16y2 has been possible.

TpELO3 (Δ6-elongase) = format: cell-based, Thalassiosira pseudonana
OtElo2 (Δ6-elongase) = format: cell-based, Ostreococcus tauri
[1] = system: Δ6-desaturase OtDes6.1, Δ6-elongase PSE1 and Δ5-desaturase PtD5; experiment: Reconstitution of ARA and EPA pathways in yeast: OtDes6.1 with PSE1 and PtD5; format: cell-based, Saccharomyces cerevisiae; conditions: for elongation by Δ6-elongase PSE1 to DHGLA and DHSTA: products of OtDes6.1 from LA and ALA (FIG. 21)
Description: The subsequent desaturation by the Δ5-desaturase PtD5 to give ARA and EPA, respectively, is also problem-free. Approximately 25-30% of the elongase product is desaturated (FIGS. 21 B and D).

OtElo2.1 (Δ6-elongase) = format: cell-based, Ostreococcus tauri
[2] = system: OmElo3, EgD4 and P. tricornutum Δ5-desaturase (PtD5); experiment: Reconstitution of DHA synthesis in yeast: coexpression of OmElo3, EgD4 and PtD5; format: cell-based, Saccharomyces cerevisiae; conditions: fed 18:4 ω3
Description: The reconstitution of the biosynthesis of DHA (22:6 ω3) was carried out starting from EPA (20:5 ω3) or stearidonic acid (18:4 ω3) by coexpressing OmElo3 together with the Euglena gracilis Δ4-desaturase or the Phaeodactylum tricomutum Δ5-desaturase and the Euglena gracilis Δ4-desaturase. To this end, the expression vectors pYes2-EgD4 and pESCLeu-PtD5 were additionally constructed. The abovementioned yeast strain which is already transformed with pYes3-OtElo3 (SEQ ID NO: 55), was transformed further with pYes2-EgD4, or simultaneously with pYes2-EgD4 and pESCLeu-PtD5. […] The cultures were incubated for a further 120 hours at 15° C.
In a further coexpression experiment, OmElo3, EgD4 and a P. tricornutum Δ5-desaturase (PtD5) were expressed together. The transgenic yeasts were fed stearidonic acid (18:4 ω3) and they were analyzed (FIG. 4). The fatty acid fed, 18:4 ω3, was elongated by OmElo3 to give 20:4 ω3 (60% elongation). The latter was desaturated by PtD5 to give 20:5 ω3. The PtD5 activity was 15%. Moreover, it was possible to elongate 20:5 ω3 by OmElo3 to give 22:5 ω3. Thereafter, the newly synthesized 22:5 ω3 was desaturated to 22:6 ω3 (DHA). Up to 0.7% of DHA was obtained in these experiments.

OtElo1 (Δ5-elongase) = format: cell-based, Ostreococcus tauri; conditions: Table 15; yeast with pOTE1
OtElo1.2 (Δ5-elongase) = format: cell-based, Ostreococcus tauri; conditions: Table 15; yeast with pOTE1.2
TpELO1 (Δ5-elongase) = experiment: TpELO1 expressed in yeast, feeding experiments; conditions: 250 μM fatty acid fed
Description: The PCR products were incubated for 30 minutes at −21° C. with the yeast expression vector pYES2.1-TOPO (Invitrogen) following the manufacturer's instructions. The PCR product was ligated into the vector by means of a T-overhang and the activity of a topoisomerase (Invitrogen). After the incubation, E. coli DH5α cells were transformed. Suitable clones were identified by PCR, the plasmid DNA was isolated by means of the Qiagen DNAeasy kit and verified by sequencing. The correct sequence was then transformed into the Saccharomyces strain INVSc1 (Invitrogen) by electroporation (1500 V). As a control, the blank vector pYES2.1 was transformed in parallel. Thereafter, the yeasts were plated out on minimal dropout uracil medium supplemented with 2% glucose. Cells which were capable of growing in the medium without uracil thus comprise the corresponding plasmids pYES2.1, pYES2.1-TpELO1, pYES2.1-ELO2 and pYES2.1-TpELO3. After the selection, in each case two transformants were chosen for the further functional expression.
The yeast cells from the main cultures were harvested by centrifugation (100×g, 5 min, 20° C.) and washed with 100 mM NaHCO3, pH 8.0 to remove residual medium and fatty acids. […]
The yeasts which had been transformed with the vector pYES2-TpELO1 were grown in minimal medium in the presence of the fatty acids stated. […] Thereafter the FAMEs were analyzed by GLC.

OmElo3 = OmElo3 expressed in yeast, feeding of fatty acids, GC of FAMEs; format: cell-based, Oncorhynchus mykiss; conditions: yeast with pYes3-OmElo3 and blank vector pYes2, fed 20:5 ω3
OmELO2 = OmELO2 expressed in yeast, feeding of fatty acids; format: cell-based, Oncorhynchus mykiss; conditions: expression in yeast
At3g06460 = At3g06460 expressed in yeast, elongation of EPA; conditions: feeding with 250 uM EPA
Description: (§1) To characterize the function of the A. thaliana desaturases, the open reading frame of the DNA in question is cloned downstream of the galactose-inducible GALL promoter of pYES2.1/V5-His-TOPO (Invitrogen), giving rise to the corresponding pAt60 and pAt70 clones.
(§2) The Saccharomyces cerevisiae strain 334 is transformed with the vectors pAt60 and pAt70, respectively by electroporation (1500 V). A yeast which is transformed with the blank vector pYES2.1 is used for control purposes. The transformed yeasts are selected on complete minimal medium (CMdum) agar plates supplemented with 2% glucose, but lacking uracil. After the selection, in each case three transformants are chosen for the further functional expression.
(§3) To express the At elongases, precultures of in each case 5 ml of CMdum liquid medium supplemented with 2% (w/v) raffinose, but without uracil, were inoculated with the selected transformants and incubated for 2 hours at 30° C., 200 rpm.
(§4) 5 ml of CMdum liquid medium (without uracil) supplemented with 2% of raffinose and 300 μM various fatty acids were then inoculated with the precultures to an OD600 of 0.05. Expression was induced by the addition of 2% (w/v) galactose. The cultures were incubated for a further 96 hours at 20° C. […]

At3g06470 = At3g06470 expressed in yeast, elongation of EPA; conditions: feeding with 250 uM EPA
Description: as §1, §2, §3, §4

CCCCCCCCCCCCCCCC(=O)O [16:0, palmitic acid]
Conversion of the starting materials by ELO(XI) in % (ELO(XI)): 3%
Conversion of the starting materials by ELO(Ci) in % (ELO(Ci)): 0%

CCCCCCCCCCCCCCCCCC(=O)O [18:0, stearic acid]
Conversion of the starting materials by ELO(XI) in % (ELO(XI)): 2%
Conversion of the starting materials by ELO(Ci) in % (ELO(Ci)): 0%

CCCCCCC=CCCCCCCCCCC(=O)O [18:1^Δ11]
conversion of fatty acid fed (PtELO6 (Δ6-elongase)): not converted

CCCCC/C=C\C/C=C\CCCCCCCC(=O)O [18:2^Δ9,12, linoleic acid]
% Elongation (PtELO6 (Δ6-elongase)): 0.99%

CCCCC/C=C\C/C=C\CC/C=C\CCCC(=O)O [18:3^Δ5,9,12, pinolenic acid]
Conversion of the starting materials by ELO(XI) in % (ELO(XI)): 13%
Conversion of the starting materials by ELO(Ci) in % (ELO(Ci)): 38%

CCCCC/C=C\C/C=C\C/C=C\CCCCC(=O)O [18:3^Δ6,9,12, γ-linolenic acid]
% conversion rate (TL16y2; 250 μM fatty acid fed): 74.9%
% conversion rate (TpELO3 (Δ6-elongase)): 75%
Conversion rate (in %) OtElo2 (OtElo2 (Δ6-elongase)): 15.3%
elongation by Δ6-elongase PSE1 to DHGLA and DHSTA [1]: elongated almost quantitatively
Conversion rate (in %) OtELO2.1 (OtElo2.1 (Δ6-elongase)): 55.7%

CC/C=C\C/C=C\C/C=C\C/C=C\CCCCC(=O)O [18:4^Δ6,9,12,15, stearidonic acid]
% Elongation (PtELO6 (Δ6-elongase)): 76.32%
% conversion rate (TL16y2; 250 μM fatty acid fed): 79.4%
% conversion rate (TpELO3 (Δ6-elongase); 250 μM of each fatty acid fed): 85%
elongation by OmElo3 to 20:4 ω3 [2]: 60%
Conversion rate (in %) OtElo2 (OtElo2 (Δ6-elongase); Table 16, yeast with pOTE2): 21.1%
elongation by Δ6-elongase PSE1 to DHGLA and DHSTA [1]: elongated almost quantitatively
Conversion rate (in %) OtELO2.1 (OtElo2.1 (Δ6-elongase); Table 16, yeast with pOTE2.1): 70.4%

CCCCC/C=C\C/C=C\C/C=C\CCCCCCC(=O)O [20:3^Δ8,11,14, dihomo-γ-linolenic acid]
conversion of fatty acid fed (PtELO6 (Δ6-elongase)): not converted
Conversion of the starting materials by ELO(XI) in % (ELO(XI)): 5%
Conversion of the starting materials by ELO(Ci) in % (ELO(Ci)): 10%

CC/C=C\C/C=C\C/C=C\CCCCCCCCCC(=O)O [20:3^Δ11,14,17]
conversion of fatty acid fed (PtELO6 (Δ6-elongase)): not converted
Conversion of the starting materials by ELO(Ci) in % (ELO(Ci)): 8%

CCCCC/C=C\C/C=C\C/C=C\C/C=C\CCCC(=O)O [20:4^Δ5,8,11,14, arachidonic acid]
% conversion rate (TL16y2; 250 μM fatty acid fed): 20.3%
% conversion rate (TpELO3 (Δ6-elongase); 250 μM of each fatty acid fed): 0%
Conversion rate (in %) OtElo1 (OtElo1 (Δ5-elongase)): 10.8 ± 0.6%
Conversion rate (in %) OtElo1.2 (OtElo1.2 (Δ5-elongase)): 38.0%
Conversion of the starting materials by ELO(XI) in % (ELO(XI)): 15%
% conversion rate (TpELO1 (Δ5-elongase)): 1.7%
Conversion of the starting materials by ELO(Ci) in % (ELO(Ci)): 10%

CC/C=C\C/C=C\C/C=C\C/C=C\C/C=C\CCCC(=O)O [20:5^Δ5,8,11,14,17, eicosapentaenoic acid]
% conversion rate (TL16y2; 50 μM fatty acid fed): 41%
% conversion rate (TL16y2; 250 μM fatty acid fed): 8%
% conversion rate (TpELO3 (Δ6-elongase); 250 μM of each fatty acid fed): 0%
Conversion rate (in %) OtElo1 (OtElo1 (Δ5-elongase)): 46.8 ± 3.6%
Conversion rate (in %) OtElo1.2 (OtElo1.2 (Δ5-elongase)): 68.6%
% conversion rate (TpELO1 (Δ5-elongase)): 12.2%
elongation of 20:5 ω3 to 22:5 ω3 (OmElo3): 65%

CCCCCC=CCC=CCC=CCC=CCCCCCC(=O)O [22:4^Δ7,10,13,16, docosatetraenoic acid]
conversion of fatty acid fed (PtELO6 (Δ6-elongase)): not converted
Conversion of the starting materials by ELO(XI) in % (ELO(XI)): 0%
Conversion of the starting materials by ELO(Ci) in % (ELO(Ci)): 0%

eicosadienoic acid [20:2^Δ11,14]
conversion of fatty acid fed (PtELO6 (Δ6-elongase)): not converted

B1: OmELO2: Oncorhynchus mykiss elongase gene product, SEQ ID NO: 51 (protein)
chain: MASTWQSVQSMRQWILENGDKRTDPWLLVYSPMPVAIIFLLYLGVVWAGPKLMKRREPVDLKAVLIVYNFAMVCLSVYMFHEFLVTSLLSNYSYLCQPVDYSTSPLAMRMAKVCWWFFFSKVIELADTVFFILRKKNSQLTFLHVYHHGTMIFNWWAGVKYLAGGQSFFIGLLNTFVHIVMYSYYGLAALGPHTQKYLWWKRYLTSLQLLQFVLLTTHTGYNLFTECDFPDSMNAVVFAYCVSLIALFSNFYYQSYLNRKSKKT
modifications: Oncorhynchus mykiss; CDS (1)..(795) delta5-elongase
elongase activity (OmELO2): no elongase activity

B2: PtD5: Phaeodactylum tricornutum Δ5-desaturase, SEQ ID NO: 5 (protein, listed as Phaeodactylum tricornutum)
chain: MAPDADKLRQRQTTAVAKHNAATISTQERLCSLSSLKGEEVCIDGIIYDLQSFDHPGGETIKMFGGNDVTVQYKMIHPYHTEKHLEKMKRVGKVTDFVCEYKFDTEFEREIKREVFKIVRRGKDFGTLGWFFRAFCYIAIFFYLQYHWVTTGTSWLLAVAYGISQAMIGMNVQHDANHGATSKRPWVNDMLGLGADFIGGSKWLWQEQHWTHHAYTNHAEMDPDSFGAEPMLLFNDYPLDHPARTWLHRFQAFFYMPVLAGYWLSAVFNPQILDLQQRGALSVGIRLDNAFIHSRRKYAVFWRAVYIAVNVIAPFYTNSGLEWSWRVFGNIMLMGVAESLALAVLFSLSHNFESADRDPTAPLKKTGEPVDWFKTQVETSCTYGGFLSGCFTGGLNFQVEHHLFPRMSSAWYPYIAPKVREICAKHGVHYAYYPWIHQNFLSTVRYMHAAGTGANWRQMARENPLTGRA
modifications: CDS (1)..(1410) delta5-desaturase
PtD5 activity (desaturation of 20:4 ω3 to 20:5 ω3) [2]: 15%
share of the elongase product desaturated by Δ5-desaturase PtD5 ([1]; to ARA and EPA (FIGS. 21 B and D)): 25-30%

B3: At3g06460: Arabidopsis thaliana elongase, SEQ ID NO: 135 (protein, listed as Arabidopsis thaliana)
chain: MASVYSTLTYWLVHHPYIANFTWTEGETLGSTVFFVFVVVSLYLSATFLLRYTVDSLPTLGPRILKPITAVHSLILFLLSLTMAVGCTLSLISSSDPKARLFDAVCFPLDVKPKGPLFFWAQVFYLSKILEFVDTLLIILNKSIQRLSFLHVYHHATVVILCYLWLRTRQSMFPVGLVLNSTVHVIMYGYYFLCAIGSRPKWKKLVTNFQMVQFAFGMGLGAAWMLPEHYFGSGCAGIWTVYFNGVFTASLLALFYNFHSKNYEKTTTSPLYKIESFIFIHGERWANKAITLFSKKND
modifications: CDS (1)..(897) delta5-elongase
Conversion rate of EPA (At3g06460): At3g06460: 3.0%

B4: At3g06470: Arabidopsis thaliana elongase, SEQ ID NO: 137 (protein, listed as Arabidopsis thaliana)
chain: MASIYSSLTYWLVNHPYISNFTWIEGETLGSTVFFVSVVVSVYLSATFLLRSAIDSLPSLSPRILKPITAVHSLILCLLSLVMAVGCTLSITSSHASSDPMARFLHAICFPVDVKPNGPLFFWAQVFYLSKILEFGDTILIILGKSIQRLSFLHVYHHATVVVMCYLWLRTRQSMFPIALVTNSTVHVIMYGYYFLCAVGSRPKWKRLVTDCQIVQFVFSFGLSGWMLREHLFGSGCTGIWGWCFNAAFNASLLALFSNFHSKNYVKKPTREDGKKSD
modifications: CDS (1)..(837) delta5-elongase
Conversion rate of EPA (At3g06470): At3g06470: 4.1%
